Test results reported in publication PMC9795544, “Identifying Novel Inhibitors for Hepatic Organic Anion Transporting Polypeptides by Machine Learning-Based Virtual Screening” (Journal of Chemical Information and Modeling, 2022).
Like-named read-outs stand apart in the source and are kept apart here.

Experiments:
Format in all cases: cell-based
OATP2B1 = biological target: T1, OATP2B1 (Homo sapiens, UniProt O94956); test: Pyranine transport inhibition in A431 cells overexpressing OATP2B1; conditions: category by concentration needed for 50% inhibition, pyranine 20 μM, 15 min, pH 5.5
T1 construct: expressed in transfected cells; host or cells: A431 cells
T1 sequence (O94956 1-709): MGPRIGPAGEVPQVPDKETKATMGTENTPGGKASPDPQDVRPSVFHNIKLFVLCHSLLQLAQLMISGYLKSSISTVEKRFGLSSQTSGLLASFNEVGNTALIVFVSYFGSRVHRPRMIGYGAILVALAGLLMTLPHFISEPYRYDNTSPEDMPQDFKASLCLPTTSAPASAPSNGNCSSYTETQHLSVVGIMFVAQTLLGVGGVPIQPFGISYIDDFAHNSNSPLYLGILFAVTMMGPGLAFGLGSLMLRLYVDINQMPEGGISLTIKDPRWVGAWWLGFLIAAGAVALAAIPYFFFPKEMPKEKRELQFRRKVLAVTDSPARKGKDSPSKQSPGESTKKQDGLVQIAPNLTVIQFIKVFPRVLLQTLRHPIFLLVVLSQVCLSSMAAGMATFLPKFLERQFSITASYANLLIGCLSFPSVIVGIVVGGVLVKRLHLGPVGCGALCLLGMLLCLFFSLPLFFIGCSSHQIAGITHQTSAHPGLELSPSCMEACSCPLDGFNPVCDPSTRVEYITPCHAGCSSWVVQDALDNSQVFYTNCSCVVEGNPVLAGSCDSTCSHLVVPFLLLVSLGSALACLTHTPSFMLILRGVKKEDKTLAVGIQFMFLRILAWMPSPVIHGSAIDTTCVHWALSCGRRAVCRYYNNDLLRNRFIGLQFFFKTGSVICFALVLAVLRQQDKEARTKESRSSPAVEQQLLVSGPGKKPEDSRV
Description: (§1) A431 cells overexpressing OATP1B1, OATP1B3, or OATP2B1 or their mock transfected controls were generated previously[30] and maintained in Dulbecco’s modified Eagle medium (DMEM, Gibco, Thermofisher Scientific, Waltham, MA, US) supplemented with 10% fetal bovine serum, 2 mM L-glutamine, 100 units/mL penicillin, and 100 μg/mL streptomycin. Expression and function of OATPs in the cell lines were checked regularly.
(§2) Interaction with OATP1B1, OATP1B3, or OATP2B1 was tested in an indirect transport assay using pyranine (8-hydroxypyrene-1,3,6-trisulfonic acid trisodium salt, H1529, Sigma, Merck, Budapest, Hungary) as the test substrate[31],[32] A431 cells overexpressing OATP1B1, OATP1B3, or OATP2B1 or their mock transfected controls were seeded on 96-well plates in a density of 8 × 10^4 cells per well in 200 μL of cell culture medium 1 day prior to the transport measurements. […] The transport reaction was started by the addition of 50 μL of uptake buffer containing pyranine in a final concentration of 10 μM (OATP1B1) or 20 μM (OATP1B3 and OATP2B1), and the cells were further incubated at 37 °C for 15 min (OATP1B1 and OATP2B1) or 30 min (OATP1B3). The reaction was stopped by removing the supernatant. After repeated washing with ice-cold PBS, fluorescence was determined in an Enspire plate reader (PerkinElmer, Waltham, MA) with excitation/emission wavelengths of 460/510 nm. OATP-dependent transport was calculated by extracting fluorescence measured in mock transfected cells and normalized to the fluorescence signal obtained in the absence of the tested compounds (100%). Experiments were repeated in at least three biological replicates.

OATP1B3 = biological target: T2, OATP1B3 (Homo sapiens, UniProt Q9NPD5); test: Pyranine transport inhibition in A431 cells overexpressing OATP1B3; conditions: initial three-point screen (1, 10, 100 μM), category by concentration needed for 50% inhibition, pyranine 20 μM, 30 min, pH 5.5; for IC50: read-out: IC50 (μM) OATP1B3
T2 construct: expressed in transfected cells; host or cells: A431 cells
T2 sequence (Q9NPD5 1-702): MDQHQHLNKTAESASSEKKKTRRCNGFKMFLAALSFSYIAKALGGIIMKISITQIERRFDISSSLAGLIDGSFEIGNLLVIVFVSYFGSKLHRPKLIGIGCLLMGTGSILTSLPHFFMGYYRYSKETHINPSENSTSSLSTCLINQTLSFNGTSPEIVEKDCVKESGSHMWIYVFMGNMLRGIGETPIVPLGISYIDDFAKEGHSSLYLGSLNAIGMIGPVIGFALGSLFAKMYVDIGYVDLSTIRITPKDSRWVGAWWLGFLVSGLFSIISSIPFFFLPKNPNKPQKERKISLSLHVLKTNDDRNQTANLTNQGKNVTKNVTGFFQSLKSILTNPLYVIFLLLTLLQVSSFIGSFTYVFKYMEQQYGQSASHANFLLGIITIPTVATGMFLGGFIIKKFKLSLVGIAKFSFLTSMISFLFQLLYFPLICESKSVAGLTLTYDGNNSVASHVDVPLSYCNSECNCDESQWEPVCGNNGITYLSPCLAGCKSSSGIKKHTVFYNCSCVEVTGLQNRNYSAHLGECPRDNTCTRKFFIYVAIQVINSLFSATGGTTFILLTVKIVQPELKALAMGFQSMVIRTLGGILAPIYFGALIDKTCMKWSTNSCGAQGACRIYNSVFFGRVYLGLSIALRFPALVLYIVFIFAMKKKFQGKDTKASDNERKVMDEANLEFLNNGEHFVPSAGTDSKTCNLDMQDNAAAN
Description: as §1, §2

OATP1B1 = biological target: T3, OATP1B1 (Homo sapiens, UniProt Q9Y6L6); test: Pyranine transport inhibition in A431 cells overexpressing OATP1B1
T3 construct: expressed in transfected cells; host or cells: A431 cells
T3 sequence (Q9Y6L6 1-691): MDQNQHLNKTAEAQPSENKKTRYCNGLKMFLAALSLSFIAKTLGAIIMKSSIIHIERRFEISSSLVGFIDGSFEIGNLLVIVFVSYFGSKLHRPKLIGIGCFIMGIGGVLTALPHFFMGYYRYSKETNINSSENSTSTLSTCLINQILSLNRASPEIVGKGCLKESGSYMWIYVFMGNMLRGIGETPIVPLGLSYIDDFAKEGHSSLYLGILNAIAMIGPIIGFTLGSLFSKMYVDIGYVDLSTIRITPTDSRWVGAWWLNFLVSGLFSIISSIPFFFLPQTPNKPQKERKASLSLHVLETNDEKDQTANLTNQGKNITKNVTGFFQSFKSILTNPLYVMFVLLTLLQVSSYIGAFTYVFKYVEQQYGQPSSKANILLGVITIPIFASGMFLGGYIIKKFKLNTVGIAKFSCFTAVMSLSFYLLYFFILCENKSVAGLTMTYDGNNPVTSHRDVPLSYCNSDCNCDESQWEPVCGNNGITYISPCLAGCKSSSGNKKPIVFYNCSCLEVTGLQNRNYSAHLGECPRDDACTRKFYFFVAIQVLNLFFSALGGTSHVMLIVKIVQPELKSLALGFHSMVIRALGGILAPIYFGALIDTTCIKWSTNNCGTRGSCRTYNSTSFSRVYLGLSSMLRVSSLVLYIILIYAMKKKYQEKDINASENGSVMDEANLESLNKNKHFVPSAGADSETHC
Description: as §1, §2

[1] = initial three-point screen (1, 10, 100 μM), read-out: IC50 (μM) OATP2B1
[2] = initial three-point screen (1, 10, 100 μM), category by concentration needed for 50% inhibition, pyranine 10 μM, 15 min, pH 5.5, read-out: IC50 (μM) OATP1B1

SMILES	IC50 (OATP2B1; IC50 (μM) OATP2B1, initial three-point screen (1, 10, 100 μM)) [µM]	IC50 (μM) OATP1B3 (OATP1B3)	IC50 (OATP1B1) [µM]	IC50 (OATP2B1; [1]) [µM]	IC50 (OATP1B3) [µM]	IC50 (OATP1B1; [2]) [µM]
O=C(NCc1ccccn1)c1ccc2c(c1)S(=O)(=O)c1ccccc1C2=O [B5, O=C(NCc1ccccn1)c2ccc3C(=O)c4ccccc4S(=O)(=O)c3c2]	1 to 10	Activated	> 10	–	–	–
O=C(CSc1nc2cc(C(F)(F)F)ccc2n1Cc1ccccc1)c1ccc[nH]1 [B6, FC(F)(F)c1ccc2c(c1)nc(SCC(=O)c3ccc[nH]3)n2Cc4ccccc4]	–	–	–	> 10	> 10	> 10
Cc1cc(C)n2nc(SCc3ccccc3C(=O)NCCc3ccc4c(c3)OCCO4)nc2n1 [C2, Cc1cc(C)n2nc(SCc3ccccc3C(=O)NCCc4ccc5OCCOc5c4)nc2n1]	–	–	–	1 to 10	–	1 to 10
CC(OC(=O)c1cc(Cl)c2c(c1)OCCCO2)C(=O)c1ccc2c(c1)NC(=O)CO2 (stereo not drawn) [D4, CC(OC(=O)c1cc(Cl)c2OCCCOc2c1)C(=O)c3ccc4OCC(=O)Nc4c3]	–	–	–	1 to 10	–	–
O=C(OCC(=O)N(C1CCCCC1)C1CCCCC1)c1nn(-c2ccccc2)c(=O)c2ccccc12 [D5, O=C(COC(=O)C1=NN(C(=O)c2ccccc12)c3ccccc3)N(C4CCCCC4)C5CCCCC5]	–	–	–	–	> 10	> 10
O=C(CN1C(=O)NC2(CCCc3ccccc32)C1=O)Nc1nnc(C23CC4CC(CC(C4)C2)C3)s1 (stereo not drawn) [D6, O=C(CN1C(=O)NC2(CCCc3ccccc23)C1=O)Nc4nnc(s4)C56CC7CC(CC(C7)C5)C6]	–	–	–	1 to 10	–	> 10
CC1CCN(c2nnc(SCC(=O)NCC3COc4ccccc4O3)n2C2CC2)CC1 (stereo not drawn) [E4, CC1CCN(CC1)c2nnc(SCC(=O)NCC3COc4ccccc4O3)n2C5CC5]	–	–	–	1 to 10	> 10	–
O=C(Nc1ccccc1)c1ccccc1OCC(=O)N1CCN(C(=O)c2ccco2)CC1 [F2, O=C(COc1ccccc1C(=O)Nc2ccccc2)N3CCN(CC3)C(=O)c4occc4]	–	–	–	1 to 10	> 10	–
O=C(CCc1ncc(-c2c(F)cccc2F)o1)N1CCN(S(=O)(=O)c2ccccc2F)CC1 [G3, Fc1cccc(F)c1c2oc(CCC(=O)N3CCN(CC3)S(=O)(=O)c4ccccc4F)nc2]	–	–	–	1 to 10	> 10	–
CC(OC(=O)C1CCN(S(=O)(=O)c2ccc3c(c2)OCCO3)CC1)C(=O)Nc1cccc(C#N)c1 (stereo not drawn) [H3, CC(OC(=O)C1CCN(CC1)S(=O)(=O)c2ccc3OCCOc3c2)C(=O)Nc4cccc(c4)C#N]	–	–	–	1 to 10	–	1 to 10
